According to patent US20210008220A1, “PHARMACEUTICAL COMPOSITIONS CONTAINING POLYROTAXANES” (UNIVERSITY OF GEORGIA RESEARCH FOUNDATION, INC., priority 2018, published 2021):

Legend:
[1] = system: NIO J774A.1 macrophage cells; assay: in vitro cytotoxicity, resazurin assay, NIO cells; type: cell-based; conditions: Mus musculus, J774.A1, 48 h, rPR-DFO at equivalent DFO concentrations, read-out: concentration inhibiting 50% cell viability
Experimental: Briefly, both NIO and IO J774A.1 macrophage cells were seeded in 96-well plates at a density of 3,000 cells/well, cultured at 37° C., 5% CO2 and 100% humidity with DMEM complete medium for 24 h. Cells were then treated with 1 mM free DFO or rPR-DFO at equivalent DFO concentrations (prepared by 1:3 serial dilutions) for 48 h; equivalent rPR-OH based on w/v to rPR-DFO concentrations was also investigated. Next, the substrate resazurin was dissolved in cell culture medium at a concentration of 44 μM, added to each well (100 μl), and incubated at 37° C. for 4 h. The fluorescence change was monitored by exciting at 560 nm and measuring emission at 590 nm with a SpectraMax Gemini EM microplate reader. Readings from wells without cells were used as Eblank, and the readings from control cells without treatment (Econtrol) represented 100% cell viability. The viability of treated cells was calculated by the following equation:

[2] = system: NIO mice (Balb/C); assay: acute toxicity in normal NIO mice; type: in vivo, mouse; conditions: single-dose 300 mg/kg DFO equiv or 100 mg/kg DFO equiv every 2 days x6, tail-vein, 14 days
Experimental: Normal NIO mice (Balb/C, Female, 6 weeks old), randomly divided into 7 groups (n=6), were treated with saline, single-dose (300 mg/kg DFO equiv) or multiple-dose (100 mg/kg DFO equiv every 2 days, six doses total) regimens of DFO, rPR-DFO, and rPR-OH (same concentrations as rPR-DFO based on w/v) via tail-vein injections (10 μL/g). Mice were monitored for 14 days for signs of acute toxicity based on body weight loss, changes in appetite, and changes in behavior such as altered gait and lethargy. The body weights of the mice were recorded every other day over the course of the study. Mice were euthanized by CO2 overdose on the 14th day. The lungs, heart, spleen, kidneys, brain and liver of animals were subsequently harvested, rinsed with fresh PBS, blotted dry with Whatman filter paper, and then weighed (note that organ weight is reported as mg of total organ weight per g of animal bw, mg/g). […] Mice also behaved normally and no changes in appetite were noted.

[3] = in humans; cited from earlier work

In the case of `CC(=O)N(O)CCCCCNC(=O)CCC(=O)N(O)CCCCCNC(=O)CCC(=O)N(O)CCCCCN` [DFO, Deferoxamine], the IC50 [1] is given as ~10 µM, the “acute toxicity based on body weights and organ weights” value [2] is given as “no apparent evidence of acute toxicity” and the “half-life (blood circulation)” value [3] is given as “ca. 20 min”.
